Measurements from article PMC7615656 (European journal of pharmacology, 2010).

Assays:
[1] = biological target: recombinant rat α1β3γ2 receptors (Rattus norvegicus, UniProt P18508+P62813); assay: Two-electrode voltage clamp of GABA-induced chloride currents in Xenopus oocytes; assay type: cell-based; conditions: for efficacy (% GABA EC3): α1β3γ2, ns = not significant
[2] = biological target: recombinant rat α1β3γ2F77I receptors (Rattus norvegicus, UniProt P18508+P62813, F115I); assay: as above; assay type: cell-based; conditions: for efficacy (% GABA EC3): ns = not significant
[3] = biological target: recombinant rat α2β3γ2 receptors (Rattus norvegicus, UniProt P18508+P23576); assay: as above; assay type: cell-based; conditions: α2β3γ2; for efficacy (% GABA EC3): ns = not significant
[4] = biological target: recombinant rat α2β3γ2F77I receptors (Rattus norvegicus, UniProt P18508+P23576, F115I); assay: as above; assay type: cell-based; conditions: for efficacy (% GABA EC3): ns = not significant
[5] = biological target: recombinant rat α3β3γ2 receptors (Rattus norvegicus, UniProt P18508+P20236); assay: as above; assay type: cell-based; conditions: for efficacy (% GABA EC3): α3β3γ2, ns = not significant
Sequence of recombinant rat α3β3γ2 receptors (P20236 29-493): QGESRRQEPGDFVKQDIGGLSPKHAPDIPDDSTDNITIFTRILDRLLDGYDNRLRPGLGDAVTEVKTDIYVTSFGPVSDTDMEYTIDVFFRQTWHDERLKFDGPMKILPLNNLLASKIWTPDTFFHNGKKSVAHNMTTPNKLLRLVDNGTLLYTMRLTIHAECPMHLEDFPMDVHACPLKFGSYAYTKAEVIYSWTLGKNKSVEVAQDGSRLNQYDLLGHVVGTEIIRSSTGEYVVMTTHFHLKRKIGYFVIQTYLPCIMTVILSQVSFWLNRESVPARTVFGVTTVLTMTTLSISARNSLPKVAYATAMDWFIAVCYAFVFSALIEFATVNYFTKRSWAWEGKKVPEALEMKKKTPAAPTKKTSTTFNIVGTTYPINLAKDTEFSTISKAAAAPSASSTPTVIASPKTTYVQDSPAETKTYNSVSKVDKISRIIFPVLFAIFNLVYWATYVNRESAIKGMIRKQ
Sequence of recombinant rat α3β3γ2 receptors (P63079 26-473 partner): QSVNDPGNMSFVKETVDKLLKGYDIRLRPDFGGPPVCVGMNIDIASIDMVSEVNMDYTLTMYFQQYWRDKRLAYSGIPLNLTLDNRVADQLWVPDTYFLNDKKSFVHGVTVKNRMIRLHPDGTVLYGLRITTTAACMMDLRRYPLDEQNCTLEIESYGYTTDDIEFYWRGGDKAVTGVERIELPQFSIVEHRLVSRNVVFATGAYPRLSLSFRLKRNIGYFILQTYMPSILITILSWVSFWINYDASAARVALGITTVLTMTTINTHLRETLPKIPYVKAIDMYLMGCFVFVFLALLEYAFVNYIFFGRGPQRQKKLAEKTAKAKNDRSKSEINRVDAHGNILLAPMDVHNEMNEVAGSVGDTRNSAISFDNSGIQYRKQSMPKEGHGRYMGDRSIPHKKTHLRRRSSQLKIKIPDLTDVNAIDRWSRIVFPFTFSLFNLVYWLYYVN
Sequence of recombinant rat α3β3γ2 receptors (P18508 39-466): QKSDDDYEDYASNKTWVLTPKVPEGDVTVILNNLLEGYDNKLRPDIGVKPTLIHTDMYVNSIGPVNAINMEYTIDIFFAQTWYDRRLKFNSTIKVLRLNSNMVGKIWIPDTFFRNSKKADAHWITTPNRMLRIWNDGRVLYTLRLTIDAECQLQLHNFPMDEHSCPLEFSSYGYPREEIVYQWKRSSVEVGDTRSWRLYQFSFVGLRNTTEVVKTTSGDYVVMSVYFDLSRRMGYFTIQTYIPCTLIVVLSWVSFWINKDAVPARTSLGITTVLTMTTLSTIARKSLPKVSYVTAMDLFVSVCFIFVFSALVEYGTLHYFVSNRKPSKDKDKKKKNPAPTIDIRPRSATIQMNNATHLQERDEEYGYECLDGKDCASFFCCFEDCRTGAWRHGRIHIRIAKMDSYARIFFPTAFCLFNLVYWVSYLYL

[6] = biological target: recombinant rat α3β3γ2F77I receptors (Rattus norvegicus, UniProt P18508+P20236, F115I); assay: as above; assay type: cell-based; conditions: for efficacy (% GABA EC3): ns = not significant
Sequence of recombinant rat α3β3γ2F77I receptors (P20236 29-493): as the sequence (P20236 29-493) above
Sequence of recombinant rat α3β3γ2F77I receptors (P63079 26-473 partner): as the sequence (P63079 26-473 partner) above
Sequence of recombinant rat α3β3γ2F77I receptors (P18508 39-466 F115I): as the sequence (P18508 39-466) above, with F77I counted along it

[7] = biological target: recombinant rat α4β3γ2 receptors (Rattus norvegicus, UniProt P18508+P28471); assay: as above; assay type: cell-based; conditions: α4β3γ2; for efficacy (% GABA EC3): ns = not significant; for maximal effect on GABA-induced chloride flux (GABA EC3), % of control current: control current = 100%
Sequence of recombinant rat α4β3γ2 receptors (P28471 36-552): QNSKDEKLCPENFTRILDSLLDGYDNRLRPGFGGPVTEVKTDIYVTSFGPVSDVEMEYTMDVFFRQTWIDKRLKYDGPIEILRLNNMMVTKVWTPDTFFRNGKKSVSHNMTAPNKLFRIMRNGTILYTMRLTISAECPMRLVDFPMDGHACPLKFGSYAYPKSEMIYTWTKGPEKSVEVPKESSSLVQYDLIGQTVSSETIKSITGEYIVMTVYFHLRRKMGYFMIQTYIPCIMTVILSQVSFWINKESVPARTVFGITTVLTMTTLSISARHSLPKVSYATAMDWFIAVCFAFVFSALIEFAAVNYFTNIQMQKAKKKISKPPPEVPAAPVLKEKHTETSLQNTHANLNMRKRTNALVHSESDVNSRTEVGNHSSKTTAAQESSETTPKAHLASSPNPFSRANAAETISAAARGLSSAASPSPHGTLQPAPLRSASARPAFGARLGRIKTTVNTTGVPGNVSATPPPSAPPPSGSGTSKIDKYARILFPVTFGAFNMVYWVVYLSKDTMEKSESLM
Sequence of recombinant rat α4β3γ2 receptors (P63079 26-473 partner): as the sequence (P63079 26-473 partner) above
Sequence of recombinant rat α4β3γ2 receptors (P18508 39-466): as the sequence (P18508 39-466) above

[8] = biological target: recombinant rat α5β3γ2 receptors (Rattus norvegicus, UniProt P18508+P19969); assay: as above; assay type: cell-based; conditions: for efficacy (% GABA EC3): α5β3γ2, ns = not significant
[9] = biological target: recombinant rat α5β3γ2F77I receptors (Rattus norvegicus, UniProt P18508+P19969, F115I); assay: as above; assay type: cell-based; conditions: for efficacy (% GABA EC3): ns = not significant
[10] = biological target: recombinant rat α6β3γ2 receptors (Rattus norvegicus, UniProt P18508+P30191); assay: as above; assay type: cell-based; conditions: α6β3γ2; for efficacy (% GABA EC3): ns = not significant; for maximal effect on GABA-induced chloride flux (GABA EC3), % of control current: control current = 100%
[11] = system: GABAA receptors containing the γ2F77I mutation; assay: Modulation of GABA EC3 in receptors containing the γ2F77I mutation; assay type: cell-based, rat; conditions: GABAA receptors containing the γ2F77I mutation
[12] = read-out: efficacy (% GABA EC3)

Compound: CN1C(=O)CN=C(c2ccccc2)c2cc(Cl)ccc21 [Diazepam, 7-chloro-1,3-dihydro-1-methyl-5-phenyl-2H-1,4-benzodiazepin-2-one]
- efficacy (% GABA EC3) ([1]; 100 nM): 239 ± 23 % GABA EC3
- efficacy (% GABA EC3) ([1]; 1 μM): 314 ± 29 % GABA EC3
- efficacy (% GABA EC3) ([1]; 10 μM): 324 ± 22 % GABA EC3
- efficacy (% GABA EC3) ([2]; 100 nM, α1β3γ2F77I): 162 ± 17 % GABA EC3
- efficacy (% GABA EC3) ([2]; 1 μM, α1β3γ2F77I): 220 ± 21 % GABA EC3
- efficacy (% GABA EC3) ([2]; 10 μM, α1β3γ2F77I): 229 ± 26 % GABA EC3
- efficacy for enhancing GABA EC3 in receptors containing the γ2F77I mutation ([2]; α1β3γ2F77I): 229 ± 26%
- efficacy (% GABA EC3) ([3]; 100 nM): 426 ± 22 % GABA EC3
- efficacy (% GABA EC3) ([3]; 1 μM): 536 ± 26 % GABA EC3
- efficacy (% GABA EC3) ([3]; 10 μM): 532 ± 20 % GABA EC3
- efficacy (% GABA EC3) ([4]; 100 nM, α2β3γ2F77I): 181 ± 1 % GABA EC3
- efficacy (% GABA EC3) ([4]; 1 μM, α2β3γ2F77I): 265 ± 4 % GABA EC3
- efficacy (% GABA EC3) ([4]; 10 μM, α2β3γ2F77I): 278 ± 6 % GABA EC3
- efficacy for enhancing GABA EC3 in receptors containing the γ2F77I mutation ([4]; α2β3γ2F77I): 278 ± 6%
- efficacy (% GABA EC3) ([5]; 100 nM): 437 ± 32 % GABA EC3
- efficacy (% GABA EC3) ([5]; 1 μM): 752 ± 48 % GABA EC3
- efficacy (% GABA EC3) ([5]; 10 μM): 738 ± 36 % GABA EC3
- efficacy (% GABA EC3) ([6]; 100 nM, α3β3γ2F77I): 166 ± 17 % GABA EC3
- efficacy (% GABA EC3) ([6]; 1 μM, α3β3γ2F77I): 263 ± 39 % GABA EC3
- efficacy (% GABA EC3) ([6]; 10 μM, α3β3γ2F77I): 272 ± 36 % GABA EC3
- efficacy for enhancing GABA EC3 in receptors containing the γ2F77I mutation ([6]; α3β3γ2F77I): 272 ± 36%
- efficacy (% GABA EC3) ([7]; 1 μM): ns
- efficacy (% GABA EC3) ([7]; 10 μM): ns
- maximal effect on GABA-induced chloride flux (GABA EC3), % of control current [7]: did not stimulate
- efficacy (% GABA EC3) ([8]; 100 nM): 274 ± 16 % GABA EC3
- efficacy (% GABA EC3) ([8]; 1 μM): 342 ± 21 % GABA EC3
- efficacy (% GABA EC3) ([8]; 10 μM): 321 ± 14 % GABA EC3
- efficacy (% GABA EC3) ([9]; 100 nM, α5β3γ2F77I): 135 ± 7 % GABA EC3
- efficacy (% GABA EC3) ([9]; 1 μM, α5β3γ2F77I): 170 ± 4 % GABA EC3
- efficacy (% GABA EC3) ([9]; 10 μM, α5β3γ2F77I): 154 ± 2 % GABA EC3
- efficacy for enhancing GABA EC3 in receptors containing the γ2F77I mutation ([9]; α5β3γ2F77I): 154 ± 2%
- efficacy (% GABA EC3) ([10]; 1 μM): ns
- efficacy (% GABA EC3) ([10]; 10 μM): ns
- maximal effect on GABA-induced chloride flux (GABA EC3), % of control current [10]: did not stimulate

Compound: CNC(=O)c1cc2c(cn1)[nH]c1ccccc12 [FG7142, N-methyl-β-carboline-3-carboxamide]
- efficacy (% GABA EC3) ([1]; 100 nM): ns
- activity at 1 µM [1, 12]: 88 ± 5%
- activity at 10 µM [1, 12]: 92 ± 4%
- activity at 0.1 µM [2, 12]: 107 ± 1%
- activity at 1 µM [2, 12]: 111 ± 1%
- activity at 10 µM [2, 12]: 124 ± 3%
- efficacy (% GABA EC3) ([3]; 100 nM): ns
- efficacy (% GABA EC3) ([3]; 1 μM): ns
- efficacy (% GABA EC3) ([3]; 10 μM): ns
- maximal effect on GABA-induced chloride flux (GABA EC3), % of control current ([3]; control current = 100%): the reduction was not significant
- efficacy (% GABA EC3) ([4]; 100 nM, α2β3γ2F77I): ns
- efficacy (% GABA EC3) ([4]; 1 μM, α2β3γ2F77I): ns
- activity at 10 µM [4, 12]: 117 ± 4%
- efficacy (% GABA EC3) ([5]; 100 nM): ns
- activity at 1 µM [5, 12]: 95 ± 2%
- activity at 10 µM [5, 12]: 91 ± 2%
- efficacy (% GABA EC3) ([6]; 100 nM, α3β3γ2F77I): ns
- activity at 1 µM [6, 12]: 115 ± 5%
- activity at 10 µM [6, 12]: 126 ± 6%
- efficacy (% GABA EC3) ([7]; 100 nM): ns
- efficacy (% GABA EC3) ([7]; 1 μM): ns
- efficacy (% GABA EC3) ([7]; 10 μM): ns
- maximal effect on GABA-induced chloride flux (GABA EC3), % of control current [7]: did not significantly influence
- efficacy (% GABA EC3) ([8]; 100 nM): ns
- efficacy (% GABA EC3) ([8]; 1 μM): ns
- activity at 10 µM [8, 12]: 84 ± 5%
- activity at 0.1 µM [9, 12]: 111 ± 2%
- activity at 1 µM [9, 12]: 112 ± 4%
- activity at 10 µM [9, 12]: 122 ± 4%
- efficacy (% GABA EC3) ([10]; 100 nM): ns
- efficacy (% GABA EC3) ([10]; 1 μM): ns
- efficacy (% GABA EC3) ([10]; 10 μM): ns
- maximal effect on GABA-induced chloride flux (GABA EC3), % of control current [10]: did not significantly influence
- maximum stimulation of the GABA-induced current [11]: 126 ± 6%
